# Earlier results, collected in patent publication US12653950B2, “Predictive biological homeostasis” (priority 2020, dated 2026).
# What was measured:
# [1] = not given; remark: listed apart in the source
# Borrelia burgdorferi = details: one animal study (Pothineni et al. 2020)
# NF-κB = details: pro-inflammatory signaling pathway involved in Lyme-induced inflammation
# [2] = in vivo
structure (smiles),measurement,setting,value
O=c1c(O)c(-c2ccc(O)c(O)c2)oc2cc(O)cc(O)c12 [Quercetin],stability in physiological systems,,unstable
same,solubility in water,[1],poorly soluble
CC1(C)S[C@@H]2[C@H](NC(=O)[C@H](NC(=O)N3CCNC3=O)c3ccccc3)C(=O)N2[C@H]1C(=O)O [azlocillin],killing of disease-causing bacteria Borrelia burgdorferi,Borrelia burgdorferi,completely kills off
COc1cc(/C=C/C(=O)CC(=O)/C=C/c2ccc(O)c(OC)c2)ccc1O [Curcumin],activation of NF-κB,NF-κB,blocking the activation
Nc1nc2c(ncn2COCCO)c(=O)[nH]1 [Acyclovir],toxic side effects in the kidneys,[2],toxic side effects in the kidneys
